Laboratory results published in publication PMC7684578, “Isopedopeptins A–H: Cationic Cyclic Lipodepsipeptides from Pedobacter cryoconitis UP508 Targeting WHO Top-Priority Carbapenem-Resistant Bacteria” (ACS Chemical Biology, 2020).
≈ marks a conversion by molar mass, not a printed value. Starred links: 1 amine or outer side, 2 acyl side, 3 side chain; linkers in the order of their positions; H or OH if unused. Positions of bridges follow the written chain, without caps; N, C: chain ends. Non-standard residues stand in square brackets, D forms with d. Residues, ends and D or L forms follow the SMILES beside them. X4 = CC(C)CCC=CCCC[C@H](CC(=O)[*:1])O[*:2]; X6 = CC(C)CCCCC=CC[C@H](CC(=O)[*:1])O[*:2]; X5 = CC(C)CCCCCCC[C@H](CC(=O)[*:1])O[*:2]; X3 = CC(C)CCCCC[C@H](CC(=O)[*:1])O[*:2]; X7 = CCCCCCC=CC[C@H](CC(=O)[*:1])O[*:2]; X2 = CCCCCCC[C@H](CC(=O)[*:1])O[*:2]; Val(3-OH) = CC(C)(O)[C@H](N)C(=O)O; X1 = C/C=C(/N[*:1])C(=O)[*:2]; Dab = NCC[C@H](N)C(=O)O; Dap = NC[C@H](N)C(=O)O

Test system: K. pneumoniae LMG20218
Assay: MIC, broth micro-dilution, primary panel
Format: cell-based, Klebsiella pneumoniae
Settings: for MIC K. pneumoniae LMG20218: ESBL; for MIC: Klebsiella pneumoniae, LMG20218, ESBL
Protocol: Isopedopeptin E (5): off-white solid; [α] D20 –36° (c 0.3 in methanol); UV (MeOH) λ max (log10 ε) 240 (3.8); 1H NMR (DMSO-d 6, 600 MHz), see Table S5; 13C NMR (DMSO-d 6, 150 MHz), see Table […]
Isopedopeptin F (6): off-white solid; [α] D20 –32° (c 0.05 in methanol); UV (MeOH) λ max (log10 ε) 240 (3.8); 1H NMR (DMSO-d 6, 600 MHz), see Table S6; 13C NMR (DMSO-d 6, 150 MHz), see Table […]
Isopedopeptin G (7): off-white solid; [α] D20 –49° (c 0.1 in methanol); UV (MeOH) λ max (log10 ε) 240 (4.0); 1H NMR (DMSO-d 6, 600 MHz), see Table S7; 13C NMR (DMSO-d 6, 150 MHz), see Table […]
Isopedopeptin H (8): off-white solid; [α] D20 –56° (c 0.2 in methanol); UV (MeOH) λ max (log10 ε) 240 (4.0); 1H NMR (DMSO-d 6, 600 MHz), see Table S8; 13C NMR (DMSO-d 6, 150 MHz), see Table […]
Minimal Inhibitory Concentration (MIC) against the primary panel of microorganisms.
The MIC for compounds 1–8 was measured by means of a broth micro-dilution method in 96-wells microtiter plates with the addition of E. coli LMG15862, LMG1041 T, E. cloacaeA. baumannii […]
H-29 and A. fumigatus J7, as test organisms. The test media were AM3 Broth (BD Difco Ltd) mixed with phosphate buffered saline (PBS, Amresco LLC, Solon, USA) in 1:4 ratio (E. coli, A. baumannii, E. cloacae, K. pneumoniae and P. aeruginosa), AM3 Broth mixed with PBS in 1:1 ratio (S. aureus), ME (A. fumigatus) and ISP2 (C. albicans). Prior to MIC determination, the cell concentration of tested bacterial/fungal pathogens was adjusted to ≅ 4 × 10^5 CFU/mL (acceptable range 2 – 6 × 10^5 CFU/mL). Cell concentration was confirmed by colony counting after diluting and plating the respective bacterial pathogen on VPA plates [VPA, 10 g Vegetable Peptone Broth (Oxoid Ltd., Basingstoke,UK), 15 g Bacto Agar (Difco Ltd, Tyrone) in 1 L deionised water] directly after each of MIC-tests. The cells of C. albicans were plated on ISP2 agar plates [ISP2, 15 g Bacto Agar (Difco Ltd) in 1 L deionised water] and respectively spores of A. fumigatus were plated on MEA plates.
Plates were, subsequently, incubated at 37 °C in the dark, and viable colonies counted after 16 to 24 h.
To estimate MIC values (concentration range between 0.05 and 50 µg/mL), solutions of the tested compounds (100, 10 and 1 and if needed 0.1 µg/mL in MeOH) were dispensed into wells of microtiter plate(s) and the solvent was evaporated in a fume-hood. Subsequently, suspensions of pathogen cells in the appropriate medium were dispensed to the wells of microtiter plates and the growth of pathogens were observed after 16 to 20 h of incubation at 37 °C in the dark. Positive controls were the respective pathogen cells suspended in untreated sterile media without addition of compounds(s) and negative controls were the media only. MIC values were defined as the lowest concentration of each compound with no visible growth of pathogen. All MIC tests were performed in triplicate and […]
MIC determination for compound 2 against an extended panel of bacterial strains.
Compound 2 was evaluated against a panel of Gram-negative bacteria (Hughes strain collection), including: A. baumannii ATCC 19606, wild-type; BM4454, multidrug-resistant clinical isolate; BM4652, efflux-defective derivative of BM4454; CH9622, colistin-resistant clinical isolate; E. coli ATCC 25922, wild-type; CH3130, efflux-defective ΔtolC mutant isogenic to ATCC 25922; D22, a drug-hypersensitive lpxC mutant of E. coli; CH3491, multidrug-resistant clinical isolate; CH9623 and CH9624, colistin-resistant clinical isolates carrying mcr-1; K. pneumoniae ATCC 13833, wild-type; […]
clinical isolate; CH9625 and CH9626, colistin-resistant clinical isolates; P. aeruginosa PAO1, wild-type; PAO750, efflux-defective mutant isogenic to PAO1. The in vitro antimicrobial activity of each compound was determined by measuring the MIC value using the broth micro-dilution technique in cation-adjusted Mueller-Hinton II broth (Becton-Dickinson, 212322) according to EUCAST and CLSI guidelines. Each compound prepared in MHII medium was dispensed into a 96-well round- […]

SMILES	MIC K. pneumoniae LMG20218	MIC
C/C=C1/NC(=O)[C@H](CCN)NC(=O)[C@H](CC(C)C)NC(=O)[C@H](CN)NC(=O)C[C@@H](CCCC=CCCC(C)C)OC(=O)[C@H](CC(=O)O)NC(=O)[C@H](C(C)C)NC(=O)[C@@H](Cc2ccccc2)NC(=O)[C@H](CN)NC(=O)[C@H]([C@@H](C)O)NC1=O [Compound 7, Isopedopeptin G] ([Dap]L[Dab][X1]T[Dap][dF]VD; linker N-C via X4)	16 µg/mL (≈ 14 µM)	8 to 16 µg/mL (≈ 7.01 to 14 µM)
C/C=C1/NC(=O)[C@H](CCN)NC(=O)[C@H](CC(C)C)NC(=O)[C@H](CN)NC(=O)C[C@@H](CC=CCCCCC(C)C)OC(=O)[C@H](CC(=O)O)NC(=O)[C@H](C(C)C)NC(=O)[C@@H](Cc2ccccc2)NC(=O)[C@H](CN)NC(=O)[C@H]([C@@H](C)O)NC1=O [Compound 8, Isopedopeptin H] ([Dap]L[Dab][X1]T[Dap][dF]VD; linker N-C via X6)	–	16 µg/mL (≈ 14 µM)
C/C=C1/NC(=O)[C@H](CCN)NC(=O)[C@H](CC(C)C)NC(=O)[C@H](CN)NC(=O)C[C@@H](CCCCCCC)OC(=O)[C@H](CC(=O)O)NC(=O)[C@H](C(C)(C)O)NC(=O)[C@@H](Cc2ccccc2)NC(=O)[C@H](CN)NC(=O)[C@H]([C@@H](C)O)NC1=O [Compound 2, isopedopeptin B] ([Dap]L[Dab][X1]T[Dap][dF][Val(3-OH)]D; linker N-C via X2)	16 µg/mL (≈ 14.3 µM)	8 to 16 µg/mL (≈ 7.16 to 14.3 µM)
C/C=C1/NC(=O)[C@H](CCN)NC(=O)[C@H](CC(C)C)NC(=O)[C@H](CN)NC(=O)C[C@@H](CCCCCCC)OC(=O)[C@H](CC(=O)O)NC(=O)[C@H](C(C)C)NC(=O)[C@@H](Cc2ccccc2)NC(=O)[C@H](CN)NC(=O)[C@H]([C@@H](C)O)NC1=O [Compound 4, isopedopeptin D] ([Dap]L[Dab][X1]T[Dap][dF]VD; linker N-C via X2)	–	> 32 µg/mL
C/C=C1/NC(=O)[C@H](CCN)NC(=O)[C@H](CC(C)C)NC(=O)[C@H](CN)NC(=O)C[C@@H](CCCCCC(C)C)OC(=O)[C@H](CC(=O)O)NC(=O)[C@H](C(C)C)NC(=O)[C@@H](Cc2ccccc2)NC(=O)[C@H](CN)NC(=O)[C@H]([C@@H](C)O)NC1=O [Compound 5, Isopedopeptin E] ([Dap]L[Dab][X1]T[Dap][dF]VD; linker N-C via X3)	–	32 µg/mL (≈ 28.7 µM)
C/C=C1/NC(=O)[C@H](CCN)NC(=O)[C@H](CC(C)C)NC(=O)[C@H](CN)NC(=O)C[C@@H](CCCCCCCC(C)C)OC(=O)[C@H](CC(=O)O)NC(=O)[C@H](C(C)(C)O)NC(=O)[C@@H](Cc2ccccc2)NC(=O)[C@H](CN)NC(=O)[C@H]([C@@H](C)O)NC1=O [Compound 6, Isopedopeptin F] ([Dap]L[Dab][X1]T[Dap][dF][Val(3-OH)]D; linker N-C via X5)	–	32 µg/mL (≈ 27.6 µM)
C/C=C1/NC(=O)[C@H](CCN)NC(=O)[C@H](CC(C)C)NC(=O)[C@H](CN)NC(=O)C[C@@H](CCCCCC(C)C)OC(=O)[C@H](CC(=O)O)NC(=O)[C@H](C(C)(C)O)NC(=O)[C@@H](Cc2ccccc2)NC(=O)[C@H](CN)NC(=O)[C@H]([C@@H](C)O)NC1=O [Compound 1, cyclo(3-hydroxy-9-methyldecanoyl-DAPA1-Leu-DABA-ABA-Thr-DAPA2-Phe-OHVal-Asp)] ([Dap]L[Dab][X1]T[Dap][dF][Val(3-OH)]D; linker N-C via X3)	8 µg/mL (≈ 7.07 µM)	8 to 16 µg/mL (≈ 7.07 to 14.1 µM)
C/C=C1/NC(=O)[C@H](CCN)NC(=O)[C@H](CC(C)C)NC(=O)[C@H](CN)NC(=O)C[C@@H](CC=CCCCCCC)OC(=O)[C@H](CC(=O)O)NC(=O)[C@H](C(C)(C)O)NC(=O)[C@@H](Cc2ccccc2)NC(=O)[C@H](CN)NC(=O)[C@H]([C@@H](C)O)NC1=O [Compound 3, isopedopeptin C] ([Dap]L[Dab][X1]T[Dap][dF][Val(3-OH)]D; linker N-C via X7)	–	32 µg/mL (≈ 28 µM)
